# Like-named read-outs stand apart in the source and are kept apart here.
# Columns and labels:
# [1] = test system: Gram-negative (19 strains); assay: Mean % relative activity (MIC) vs sulbenicillin, Gram-negative (19 strains); type: cell-based; details: for Mean % Relative Activity (SPBC = 100%): G (-) (19 strains)
# Method: (§1) Minimum inhibitory concentrations (MIC) of BB-S520 were determined by serial two-fold agar dilution method using Steers' apparatus on Meuller-Hinton agar plate against 31 test organisms for the primary screening and also against 61 strains of Pseudomonas aeruginosa for the secondary evaluation. The results are shown in Table 1 and Table 2 along with those of BB-S514 and sulbenicillin.
# (§2) Minimum inhibitory concentrations (MIC) of cephalosporins in the present study were determined by serial two-fold agar dilution method using Steers' apparatus on Mueller-Hinton agar plate against 31 test organisms for the primary screening and also against 61 strains of Pseudomonas aeruginosa for the secondary evaluation.
# [2] = test system: P. aeruginosa; assay: MIC by serial two-fold agar dilution (Mueller-Hinton agar), P. aeruginosa, primary screening; type: cell-based
# Method: as §1, §2
# [3] = test system: E. coli; assay: MIC by serial two-fold agar dilution (Mueller-Hinton agar), E. coli; type: cell-based; details: Escherichia coli
# Method: as §1, §2
# [4] = test system: Gram-positive (6 strains); assay: Mean % relative activity (MIC) vs sulbenicillin, Gram-positive (6 strains); type: cell-based; details: for Mean % Relative Activity (SPBC = 100%): G (+) (6 strains)
# Method: as §1, §2
# [5] = test system: Pseudomonas (6 strains); assay: Mean % relative activity (MIC) vs sulbenicillin, Pseudomonas (6 strains); type: cell-based; details: for Mean % Relative Activity (SPBC = 100%): P. aerug. (6 strains)
# Method: as §1, §2
# [6] = Mouse blood levels after subcutaneous injection; type: in vivo; details: sc
# Source text: |Mouse Blood Levels | Blood Levels in Mcg./Ml. at | Indicated Hours After Subcu- |Dose in taneous Injection
# [7] = test system: Pseudomonas sp.; assay: MIC by serial two-fold agar dilution (Mueller-Hinton agar), Pseudomonas sp.; type: cell-based; details: Pseudomonas sp. A20358, Table 6
# Method: as §2
# [8] = Pseudomonas aeruginosa, P. aeruginosa (2nd line), Table 1, read-out: MIC
# [9] = Pseudomonas aeruginosa, P. aeruginosa (3rd line), Table 1, read-out: MIC
# [10] = Pseudomonas aeruginosa, P. aeruginosa (4th line), Table 1, read-out: MIC
# [11] = Pseudomonas aeruginosa, P. aeruginosa (6th line), Table 1, read-out: MIC
# [12] = E. coli Juhl, Table 1, read-out: MIC
# [13] = E. coli NIHJ, Table 1, read-out: MIC
# [14] = E. coli, unnamed strain (4th E. coli line), Table 1, read-out: MIC
# [15] = E. coli, unnamed strain (5th E. coli line), Table 1, read-out: MIC
# [16] = E. coli, unnamed strain (6th E. coli line), Table 1, read-out: MIC
# [17] = E. coli, unnamed strain (7th E. coli line), Table 1, read-out: MIC
# [18] = E. coli, unnamed strain (8th E. coli line), Table 1, read-out: MIC
# [19] = E. coli, unnamed strain (9th E. coli line), Table 1, read-out: MIC
smiles,measurement,setting,value
"NC(=O)OCC1=C(C(=O)O)N2C(=O)C(NC(=O)[C@H](NC(=O)c3cnc4cccnc4c3O)c3ccccc3)[C@H]2SC1 (stereo partly drawn) [BB-S520, Sodium 7-[D-α-(4-hydroxy-1,5-naphthyridine-3-carboxamido)-α-phenylacetamido]-3-carbamoyloxymethyl-3-cephem-4-carboxylate]",Mean % Relative Activity (SPBC = 100%),"[1]; lot 1, Table 5",179%
same,Mean % Relative Activity (SPBC = 100%),"[1]; lot 2, Table 5",108%
same,Mean % Relative Activity (Sulbenicillin = 100%),"[1]; Gram-negative (19 strains), from geometric means of MICs in Table 1",179%
same,MIC,"[2]; Pseudomonas aeruginosa, P. aeruginosa (1st line), Table 1, read-out: MIC",1.6 µg/mL
same,MIC,[2]; [8],3.1 µg/mL
same,MIC,[2]; [9],3.1 µg/mL
same,MIC,[2]; [10],12.5 µg/mL
same,MIC,"[2]; Pseudomonas aeruginosa, P. aeruginosa (5th line), Table 1, read-out: MIC",1.6 µg/mL
same,MIC,[2]; [11],1.6 µg/mL
same,MIC,[3]; [12],1.6 µg/mL
same,MIC,[3]; [13],0.05 µg/mL
same,MIC,[3]; [14],0.8 µg/mL
same,MIC,[3]; [15],100 µg/mL
same,MIC,[3]; [16],3.1 µg/mL
same,MIC,[3]; [17],100 µg/mL
same,MIC,[3]; [18],3.1 µg/mL
same,MIC,[3]; [19],0.4 µg/mL
same,Mean % Relative Activity (SPBC = 100%),"[4]; lot 1, Table 5",200%
same,Mean % Relative Activity (SPBC = 100%),"[4]; lot 2, Table 5",141%
same,Mean % Relative Activity (Sulbenicillin = 100%),"[4]; Gram-positive (6 strains), from geometric means of MICs in Table 1",200%
same,Mean % Relative Activity (SPBC = 100%),"[5]; lot 1, Table 5",635%
same,Mean % Relative Activity (SPBC = 100%),"[5]; lot 2, Table 5",712%
same,Mean % Relative Activity (Sulbenicillin = 100%),"[5]; Pseudomonas (6 strains), from geometric means of MICs in Table 1",635%
same,concentration at 0.25 h,"[6]; in vivo, 20 mg/kg",13000 ng/mL
same,concentration at 0.5 h,"[6]; in vivo, 20 mg/kg",9000 ng/mL
same,concentration at 1 h,"[6]; in vivo, 20 mg/kg",3700 ng/mL
same,concentration at 0.25 h,"[6]; in vivo, 40 mg/kg",25000 ng/mL
same,concentration at 0.5 h,"[6]; in vivo, 40 mg/kg",20000 ng/mL
same,concentration at 1 h,"[6]; in vivo, 40 mg/kg",7000 ng/mL
same,concentration at 2 h,"[6]; in vivo, 40 mg/kg",1000 ng/mL
"CC1(C)S[C@@H]2[C@H](NC(=O)C(c3ccccc3)S(=O)(=O)O)C(=O)N2[C@H]1C(=O)O (stereo partly shown) [Sulbenicillin, sulbenicillin]",MIC,"[2]; P. aeruginosa (5th line), Table 1",12.5 Mcg./Ml.
same,MIC,"[2]; P. aeruginosa A15150, Table 6",12.5 µg/mL
same,MIC,"[2]; P. aeruginosa A20229, Table 6",12.5 µg/mL
same,MIC,[2]; Pseudomonas aeruginosa,12.5 µg/mL
same,MIC,[2]; [8],25 µg/mL
same,MIC,[2]; [9],25 µg/mL
same,MIC,[2]; [10],100 µg/mL
same,MIC,[2]; [11],3.1 µg/mL
same,MIC,"[2]; Pseudomonas aeruginosa, P. aeruginosa A9843, Table 6, read-out: MIC",25 µg/mL
same,MIC,"[2]; Pseudomonas aeruginosa, P. aeruginosa A9930, Table 6, read-out: MIC",25 µg/mL
same,MIC,"[2]; Pseudomonas aeruginosa, P. aeruginosa A20717, Table 6, read-out: MIC",100 µg/mL
same,MIC,"[3]; E. coli A9435, Table 6, read-out: MIC",12.5 µg/mL
same,MIC,"[3]; E. coli A9844, Table 6, read-out: MIC",0.8 µg/mL
same,MIC,"[3]; E. coli A10664, Table 6, read-out: MIC",1.6 µg/mL
same,MIC,"[3]; E. coli A20366, Table 6, read-out: MIC",> 100 µg/mL
same,MIC,"[3]; E. coli A20520, Table 6, read-out: MIC",6.3 µg/mL
same,MIC,"[3]; E. coli A20732, Table 6, read-out: MIC",100 µg/mL
same,MIC,"[3]; E. coli A20898, Table 6, read-out: MIC",> 100 µg/mL
same,MIC,"[3]; E. coli Juhl A15119, Table 6, read-out: MIC",3.1 µg/mL
same,MIC,[3]; [12],1.6 µg/mL
same,MIC,[3]; [13],0.8 µg/mL
same,MIC,"[3]; E. coli NIHJ, Table 6, read-out: MIC",0.8 µg/mL
same,MIC,"[3]; E. coli, unnamed strain (3rd E. coli line), Table 1",0.8 µg/mL
same,MIC,[3]; [14],1.6 µg/mL
same,MIC,[3]; [15],> 100 µg/mL
same,MIC,[3]; [16],6.3 µg/mL
same,MIC,[3]; [17],> 100 µg/mL
same,MIC,[3]; [18],> 100 µg/mL
same,MIC,[3]; [19],6.3 µg/mL
same,MIC,[7],3.1 µg/mL
same,concentration at 0.25 h,"[6]; blood, 20 mg/kg, subcutaneous, 20 Mgm./Kg., 0.25 hours, read-out: Blood Levels",9800 ng/mL
same,concentration at 0.5 h,"[6]; blood, 20 mg/kg, subcutaneous, 20 Mgm./Kg., 0.5 hours, read-out: Blood Levels",7500 ng/mL
same,concentration at 1 h,"[6]; blood, 20 mg/kg, subcutaneous, 20 Mgm./Kg., 1.0 hours, read-out: Blood Levels",1200 ng/mL
same,concentration at 0.25 h,"[6]; blood, 40 mg/kg, subcutaneous, 40 Mgm./Kg., 0.25 hours, read-out: Blood Levels",22000 ng/mL
same,concentration at 0.5 h,"[6]; blood, 40 mg/kg, subcutaneous, 40 Mgm./Kg., 0.5 hours, read-out: Blood Levels",14000 ng/mL
same,concentration at 1 h,"[6]; blood, 40 mg/kg, subcutaneous, 40 Mgm./Kg., 1.0 hours, read-out: Blood Levels",5000 ng/mL
same,concentration at 2 h,"[6]; blood, 40 mg/kg, subcutaneous, 40 Mgm./Kg., 2.0 hours, read-out: Blood Levels",< 1000 ng/mL
